In patent US20230390269A1, “METHOD OF TREATMENT WITH TRADIPITANT” (Vanda Pharmaceuticals Inc., priority 2017, published 2023):
Bridge positions count the residues as written; N and C are the ends. Square brackets hold non-standard residues; d marks the D form. Peptide text beside a SMILES is read from it. * marks the point of attachment. NH(β-GlcNAc) = CC(=O)N[C@@H]1[C@@H](O)[C@H](O)[C@@H](CO)O[C@H]1N*; Dap = NC[C@H](N)C(=O)O

How the values were obtained:
NK-1 = target: T1, NK-1 (Homo sapiens, UniProt P25103); details: patients with IBS, double-blind study; cited from earlier work
T1 construct: host or cells: patients with IBS
T1 sequence (P25103 whole entry): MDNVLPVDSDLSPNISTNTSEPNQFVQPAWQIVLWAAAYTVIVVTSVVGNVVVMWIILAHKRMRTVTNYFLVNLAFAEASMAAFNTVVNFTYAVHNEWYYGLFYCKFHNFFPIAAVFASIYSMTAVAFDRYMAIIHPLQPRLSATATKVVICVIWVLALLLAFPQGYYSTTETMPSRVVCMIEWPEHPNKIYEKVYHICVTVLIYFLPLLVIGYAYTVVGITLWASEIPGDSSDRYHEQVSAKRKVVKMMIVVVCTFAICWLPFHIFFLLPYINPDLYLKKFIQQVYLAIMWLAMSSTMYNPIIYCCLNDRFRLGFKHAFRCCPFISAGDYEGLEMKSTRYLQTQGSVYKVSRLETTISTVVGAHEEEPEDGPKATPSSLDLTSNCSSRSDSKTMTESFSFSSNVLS

NK-1 receptor [1] = target: T2, NK-1 receptor (Meriones unguiculatus, UniProt Q5DUB1); experiment: NK-1 agonist (GR73632, icv)-induced foot-tapping behavior in gerbils; assay type: in vivo, Mongolian gerbil
T2 construct: from tissue; host or cells: living gerbil, brain (icv agonist)
T2 sequence (Q5DUB1 whole entry): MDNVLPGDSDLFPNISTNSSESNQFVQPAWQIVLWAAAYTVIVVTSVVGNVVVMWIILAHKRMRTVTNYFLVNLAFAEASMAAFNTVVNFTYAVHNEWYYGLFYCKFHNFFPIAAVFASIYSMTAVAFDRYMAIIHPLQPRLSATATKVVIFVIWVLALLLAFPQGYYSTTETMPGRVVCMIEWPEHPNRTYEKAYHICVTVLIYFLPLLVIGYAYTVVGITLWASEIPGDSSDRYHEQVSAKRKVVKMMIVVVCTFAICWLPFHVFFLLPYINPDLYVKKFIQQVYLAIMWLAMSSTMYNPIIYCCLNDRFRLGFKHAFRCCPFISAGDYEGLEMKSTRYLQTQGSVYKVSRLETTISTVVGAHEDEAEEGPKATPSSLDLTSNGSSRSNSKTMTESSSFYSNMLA
Description: Male Mongolian gerbils (Harlan Sprague Dawley, Indianapolis, IN) weighing 26 to 40 grams are administered the selective neurokinin-1 receptor agonist GR73632 (3 pmol) via direct, vertical, free-hand intracerebroventricular (icy) injection to a depth of 4.5 mm below bregma with a cuffed 27-gauge needle attached to a 50 μl Hamilton syringe. Immediately after injection, animals are placed individually into isolated chambers with pressure-sensitive velocimeter platform floors (San Diego Instruments acoustic startle apparatus) that detect and quantify vibration. The San Diego Instruments “SR” DOS-based computer program is used on a PC to record the number of foot-taps over the following 6 to 10 minutes, beginning 30 seconds after the floor was lightly tapped. Raw data is converted with a Microsoft Excel macro that determines the number of events over threshold (125) in each 250-millisecond time bin over the 5.5 minutes following onset of observation. The total number and average intensity of events over the duration is determined. Total number of taps is analyzed with one-way ANOVA and post-hoc Dunnett's test using JMP statistical software.
A dose-response curve (with doses of 0.3, 1, 3 and 10 pmols, icy) is initially generated with the NK-1 agonist GR73632. […] The 3 pmol dose is subsequently chosen as the dose of choice for antagonism experiments.
NK-1 antagonists are tested for their ability to attenuate GR73632-induced foot tapping. NK-1 antagonists are administered (po) via oral feeding tube at doses and time points specified in each experiment. All animals receive only one dose of NK-1 antagonists in all tests.
NK-1 antagonists are administered at multiple doses (at least 3; one dose per animal) and response to GR73632 is measured.
Tradipitant is dissolved in 1% CMC/0.5% SLS/0.085% PVP vehicle.

NK-2 receptor [2] = target: T3, NK-2 receptor (Homo sapiens, UniProt P21452); details: in vivo; cited from earlier work
T3 sequence (P21452 1-398): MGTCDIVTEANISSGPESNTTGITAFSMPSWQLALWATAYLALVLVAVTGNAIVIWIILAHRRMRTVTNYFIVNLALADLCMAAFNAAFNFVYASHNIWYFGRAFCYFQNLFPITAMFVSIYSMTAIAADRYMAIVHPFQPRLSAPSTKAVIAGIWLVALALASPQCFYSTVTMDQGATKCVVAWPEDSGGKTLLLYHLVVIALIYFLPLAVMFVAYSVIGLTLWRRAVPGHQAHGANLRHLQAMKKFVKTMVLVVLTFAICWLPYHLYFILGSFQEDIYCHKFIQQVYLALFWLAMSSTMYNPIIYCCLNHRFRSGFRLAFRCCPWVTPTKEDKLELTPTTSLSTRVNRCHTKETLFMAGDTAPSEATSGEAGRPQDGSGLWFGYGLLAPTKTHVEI

nausea in gastroparesis = experiment: Phase II study in patients with gastroparesis, open label extension; assay type: in vivo, human; details: 85 mg bid
Text: In a phase II study of tradipitant in patients with gastroparesis, participants initially enter 4 week screening period prior to treatment with tradipitant, during which they answer a daily symptom questionnaire rating their nausea severity on a scale of […] 0 represents no nausea, 1 represents very mild nausea, 2 represents mild nausea, 3 represents moderate nausea, 4 represents severe nausea, and 5 represents very severe nausea. After the 4 week screening period, patients enter the double blind randomized portion of the study, in which they receive either tradipitant 85 mg bid, or placebo. After 4 weeks of blinded study drug treatment, patients have the opportunity to enter an additional 8 week open label extension, during which each subject receives tradipitant 85 mg bid. 64 subjects participate in at least one week of the open label tradipitant dosing portion of the study. The average daily diarized nausea scores are reported for subjects during the 4 week screening period and during the up to 8 week open label extension.

NK-2 receptor [3] = target: T3, NK-2 receptor; experiment: NK-2 receptor inhibition (selectivity panel); assay type: binding
Description: (§1) In addition, tradipitant is evaluated in a panel of 74 other receptors, enzymes, and ion channels.

[4] = system: panel of 74 other receptors, enzymes, and ion channels; experiment: Selectivity panel of 74 other receptors, enzymes and ion channels; assay type: binding
Description: By 3 different measures, tradipitant is also a potent centrally active NK-1 antagonist in vivo.
as §1

NK-3 receptor = target: T4, NK-3 receptor (Homo sapiens, UniProt P29371); experiment: NK-3 receptor inhibition (selectivity panel); assay type: binding
T4 sequence (P29371 1-465): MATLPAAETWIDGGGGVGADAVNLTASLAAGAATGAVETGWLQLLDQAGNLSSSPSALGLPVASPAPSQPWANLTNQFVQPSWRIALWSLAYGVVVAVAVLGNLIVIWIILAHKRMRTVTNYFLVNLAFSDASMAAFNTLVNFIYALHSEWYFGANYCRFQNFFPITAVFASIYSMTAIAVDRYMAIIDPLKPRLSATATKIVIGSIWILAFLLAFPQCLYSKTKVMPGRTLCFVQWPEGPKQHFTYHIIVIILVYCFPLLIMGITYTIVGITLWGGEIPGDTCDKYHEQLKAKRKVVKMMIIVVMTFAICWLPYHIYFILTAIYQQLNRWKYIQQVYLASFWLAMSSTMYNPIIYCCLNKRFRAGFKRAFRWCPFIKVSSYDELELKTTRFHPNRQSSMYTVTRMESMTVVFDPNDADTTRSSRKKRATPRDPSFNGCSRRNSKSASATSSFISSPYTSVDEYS
Description: as §1

NK-1 receptor [5] = target: T5, NK-1 receptor (Cavia porcellus, UniProt P30547); experiment: GR73632-induced vocalization in guinea pigs; assay type: in vivo, guinea pig
T5 construct: from tissue; host or cells: living guinea pig, brain (icv agonist)
T5 sequence (P30547 whole entry): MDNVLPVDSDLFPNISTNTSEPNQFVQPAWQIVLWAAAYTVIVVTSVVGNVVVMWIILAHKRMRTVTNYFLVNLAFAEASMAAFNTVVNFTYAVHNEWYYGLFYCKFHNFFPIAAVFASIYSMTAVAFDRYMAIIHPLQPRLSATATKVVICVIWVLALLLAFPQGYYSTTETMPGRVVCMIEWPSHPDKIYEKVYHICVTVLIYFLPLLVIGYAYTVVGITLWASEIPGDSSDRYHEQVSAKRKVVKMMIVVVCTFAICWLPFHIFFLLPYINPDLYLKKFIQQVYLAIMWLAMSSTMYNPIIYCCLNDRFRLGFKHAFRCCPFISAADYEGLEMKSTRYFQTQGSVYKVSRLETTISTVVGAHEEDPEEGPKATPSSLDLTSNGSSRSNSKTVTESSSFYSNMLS
Description: When introduced into the brain, the NK-1 receptor agonist, substance P (SP) elicits distress vocalizations in the guinea pig that can be inhibited by NK-1 antagonists (Kramer et al. 1998; Rupniak et al. 2000).
Male Dunkin/Hartley guinea pigs (200 to 250 grams) are orally administered either vehicle or an NK-1 antagonist. Approximately 45 minutes later (for dose response studies), the animals are anesthetized and 0.1 nmol of GR73632 (SP analog) in a vehicle volume of 5 μl is injected into the cerebral ventricle at the intersection of bregma and the midline of the skull. Animals are placed in a dark testing chamber located inside of a sound attenuation cubicle and vocalizations are recorded for 30 minutes following recovery from anesthesia. The time spent vocalizing is quantified for each animal. In the duration of action study (FIG. 5), 0.1 mg/kg of tradipitant or vehicle solution is administered orally and then 2, 4, or 7 hours later, 0.1 nmol of GR73632 is administered into the cerebral ventricle as described above. Vocalizations are recorded and quantified as indicated above. Vehicle solutions are either CMC (FIG. 4 data) or a 10% ethanol/emulphor, 10% propylene glycol solution (FIGS. 5 and 6). Data is analyzed using one-tailed t-tests.

brain NK-1 receptors = experiment: Occupancy of brain NK-1 receptors with tracer GR205171; assay type: in vivo; details: p.o., tracer GR205171 iv
Description: A tracer NK-1 antagonist compound (GR205171) is used to evaluate the ability of other NK-1 antagonists to occupy the brain NK-1 receptors. In these studies, the test compounds are administered orally and the tracer compound administered intravenously afterward. The occupancy of the NK-1 receptors is evaluated by quantitating the amount of the tracer compound bound to the brain NK-1 receptors after increasing doses of the test compounds.

## COc1ccc(C(C)C)cc1CN[C@H]1C2CCN(CC2)[C@H]1C(c1ccccc1)c1ccccc1 [CJ-11,974]
NK-1
  discomfort associated with rectosigmoidal distension: alleviated the discomfort

## C[C@@H](O[C@H]1OCCN(Cc2n[nH]c(=O)[nH]2)[C@H]1c1ccc(F)cc1)c1cc(C(F)(F)F)cc(C(F)(F)F)c1 [MK-869]
NK-1 receptor [1]; 1.2 mg/kg po
  time after administration up to which foot-tapping is significantly inhibited: up to 24 hours
NK-1 receptor [1]; po, GR 73632 3 pmol icv, gerbil
  ED50, inhibition of foot-tapping behavior: 0.4 ± 0.05 mg/kg

## CC(=O)N[C@@H]1[C@@H](O)[C@H](O)[C@@H](CO)O[C@H]1NC(=O)C[C@@H]1NC(=O)[C@H](CC(C)C)NC(=O)[C@@H]2CNC(=O)C[C@H](NC1=O)C(=O)N[C@@H](Cc1c[nH]c3ccccc13)C(=O)N[C@@H](Cc1ccccc1)C(=O)N2 [nepadutant] (cyclo(D(NH(β-GlcNAc))DWF[Dap]L); lactam 2-5)
NK-2 receptor [2]
  basal gastrointestinal motility: without affecting
  motility-stimulating effect of neurokinin A: effectively antagonized

## O=C(c1ccccc1Cl)c1cccnc1-c1nnn(Cc2cc(C(F)(F)F)cc(C(F)(F)F)c2)c1-c1ccncc1 [tradipitant, {2-[1-(3,5-bistrifluoromethylbenzyl)-5-pyridin-4-yl-1H-[1,2,3]triazol-4-yl]-pyridin-3-yl}-(2-chlorophenyl)-methanone]
Nausea in gastroparesis
  change of average daily nausea score compared to pre-treatment: reduced by approximately one half
  change of average percentage of nausea-free days compared to pre-treatment: doubled or greater
NK-2 receptor [3]
  inhibition at the NK-2 receptor: no significant inhibition
[4]
  activity in panel of 74 additional receptors, enzymes, and ion channels including NK-2 and NK-3: no significant activity
[4]; test concentration 1 μM, 74 targets
  inhibition of binding: ≤ 50%
NK-3 receptor
  inhibition at the NK-3 receptor: no significant inhibition
NK-1 receptor [1]; 0.1 mg/kg po
  time after administration up to which foot-tapping is significantly inhibited: up to 7 hours
NK-1 receptor [1]; 1 mg/kg
  time after administration up to which foot-tapping is significantly reversed: up to 16 hours
NK-1 receptor [5]; at and below 0.1 mg/kg, 0.05 and 0.025 mg/kg, p<0.001
  inhibition of vocalization at low doses: retains significant inhibitory activity
NK-1 receptor [5]; single dose 0.1 mg/kg oral, 7 hours after administration
  suppression of agonist-induced vocalization, duration of activity study: significantly active
Brain NK-1 receptors
  estimated ED50, brain NK-1 receptor occupancy: 0.04 mg/kg
